Source: patent US20160058060A1, “FOOD SALT PRODUCT” (SMART SALT INC, priority 2013, published 2016)
Where two headings read alike, the source gives them in different places.

Tests used:
[1] = cited from earlier work
L. monocytogenes = test: Microbial growth/survival of L. monocytogenes in frankfurter samples; type: cell-based; settings: equal dosage levels, storage 5° C., no nitrites
Experimental: No nitrites were added to the samples. […] The frankfurters were subject to sensory testing.

[2] = tested on: B. cereus and B. subtilis; test: Bacillus spp. counts in inoculated bread post baking; type: cell-based; settings: salt level 1.2% w/w, immediately post baking and after cooling
Experimental: (§1) A salt sample according to Example 7 of the invention was used to test the microbial growth in bread. […] Inoculated and uninoculated loaves (controls) were microbiologically analyzed over 6 days storage at 21° C. and 25° C. Analysis was carried out on day 0 (post baking and after cooling), day 1, day 2 and day 6. The results highlighted two main differences between the two salt types.

[3] = tested on: total aerobic viable counts; test: Total aerobic viable counts in un-inoculated control bread during storage; type: cell-based; settings: end of storage (Day 6), both storage temperatures (21° C. and 25° C.)
Experimental: as §1, with “Analysis was carried out on day 0 (post baking and after cooling), day 1, day 2 and day 6.” left out

[4] = aqueous solution; cited from earlier work

In the case of [Cl-].[K+] [KCl, potassium chloride], the Aqueous solubility ([1]; Temperature 0 °C) is listed as 21.74 mass-% of solute, the Aqueous solubility ([1]; Temperature 20 °C) is listed as 25.39 mass-% of solute and the Aqueous solubility ([1]; Temperature 40 °C) is listed as 28.59 mass-% of solute. The Aqueous solubility ([1]; Temperature 60 °C) was 31.40 mass-% of solute, the Aqueous solubility ([1]; Temperature 80 °C) was 33.86 mass-% of solute and the Aqueous solubility ([1]; Temperature 100 °C) was 36.05 mass-% of solute.

With [Cl-].[Na+] [NaCl, sodium chloride] the “storage time until increase of L. monocytogenes to a count of 4 Log” value (L. monocytogenes) was 23 days, the “log drop in Bacillus spp. counts” value [2] was “up to 3.4 Log” and the “total aerobic viable counts” value [3] was 10^4-10^5 cfu/g.

In the case of [Cl-].[Cl-].[Mg+2] [MgCl2, magnesium chloride], the stability constant [4] is listed as “zero”.
